Laboratory results as given in paper PMC6770071, “XIAP as a Target of New Small Organic Natural Molecules Inducing Human Cancer Cell Death” (Cancers, 2019).
In brackets after ≈: the same amount, converted by molar mass. Like-named read-outs stand apart in the source and are kept apart here.

Experiments:
[1] = test system: human umbilical vein endothelial cells (HUVEC); experiment: MTT cell viability assay, HUVEC; format: cell-based; conditions: 24 h
Method: (§1) Human U373 glioma, MCF7 breast cancer, A549 lung cancer and PC-3 prostate cancer cells were grown in Dulbecco’s Modified Eagle Medium (DMEM), supplemented with 10% foetal bovine serum, 2 mM glutamine, 100 U/mL penicillin/streptomycin, at 37 °C in a humidified atmosphere containing 5% CO2 (logarithmic growth phase, routine passages every 3 days). The human breast epithelial cell line MCF10 was cultured in DMEM/F12 Ham’s Mixture supplemented with 5% horse serum, epithelial growth factor 20 ng/mL, insulin 10 μg/mL, hydrocortisone 0.5 mg/mL, cholera toxin 100 ng/mL, and 100 U/mL penicillin/streptomycin. […]
(§2) U373, MCF7, A549, PC-3, HUVEC, and MCF10 cell viability was determined by MTT assay using published protocols. MTT absorbance was quantified spectrophotometrically using a Glomax Multi Detection System microplate reader (Promega, Milano, Italy).
(§3) Statistical significance of raw data between the groups in each experiment was evaluated using unpaired Student’s t-test (single comparisons) or one-way ANOVA followed by the Newman-Keuls post-test (multiple comparisons). The IC50 and Emax concentration were determined by non-linear regression curve analysis of the concentration-effect responses. […] The results were expressed as means ± standard error of mean (SEM) of the indicated n values.

U373 cells [2] = experiment: TMRM mitochondrial membrane potential analysis, U373 cells; format: cell-based, human; conditions: U373, increasing time; gibbilimbol B/eriopodol A 30 µg/mL, erioquinol 10 µg/mL
Method: Using published protocols, mitochondria of MCF7 and U373 cells were labeled using TMRM, a voltage-sensitive cationic lipophilic dye, partitioning and accumulating in the mitochondrial matrix based upon the Nernst equation. After treatments, cells were trypsinised, counted and incubated with 100 nM TMRM for 30 min at 37 °C. Fluorescence was measured by using a Glomax Multi Detection System microplate reader (Promega), excitation wavelength: 525 nm; emission wavelength: 580–640 nm). After background subtraction, the data were normalised on cell number.

A549 cells = experiment: MTT cell viability assay, A549 lung cancer cells; format: cell-based; conditions: Homo sapiens, 24 h
Method: as §1, §2, §3

MCF7 cells [3] = experiment: Confocal co-localisation of cytochrome c with COX IV, MCF7 cells; format: cell-based, human; conditions: MCF7, 3 h; gibbilimbol B/eriopodol A 30 µg/mL, erioquinol 10 µg/mL
Method: (§4) Using published protocols, MCF7 or U373 cells cultured in 120-mm coverslips were fixed in 4% paraformaldehyde in 0.1 M PB, pH 7.4, for 10 min. Cells were pre-incubated for 1 h min with 5% of normal goat serum (Life Technologies, Monza, Italy) in 0.1 M PB (pH 7.4) containing 0.1% Triton X-100, before overnight incubation with the rabbit monoclonal anti-cleaved caspase 7 (Cell Signaling Technology, Danvers, MA, USA). In double-label immunofluorescence experiments, the mouse monoclonal anti-cytochrome c primary antibody (Cell Signaling Technology) was used in conjunction with the rabbit monoclonal primary antibody directed to COX IV (Cell Signaling Technology). For fluorescence detection, coverslips were stained with the appropriate Alexa Fluor secondary antibodies (Life Technologies) and mounted on glass slides in a ProLong Gold Antifade Mountant (Life Technologies). DAPI and/or fluorescein phalloidin (cytoskeleton detection) staining was also used. Cells were analysed with a DMI4000 B automated inverted microscope equipped with a DCF310 digital camera (Leica Microsystems, Wetzlar, Germany). When indicated, confocal imaging was performed with a TCS SP8 System (Leica Microsystems). Image acquisitions were controlled by the Leica Application Suite X.

MCF7 cells [4] = experiment: Bright field microscopy and DAPI staining of cell morphology; format: cell-based, human; conditions: MCF7, 6 h; for cell morphology, bright field microscopy: increasing concentrations; for nuclei, DAPI staining: gibbilimbol B/eriopodol A 30 µg/mL, erioquinol 10 µg/mL
Method: as §4

MCF7 cells [5] = experiment: TUNEL assay; format: cell-based, human; conditions: MCF7, 12 h; gibbilimbol B/eriopodol A 30 µg/mL, erioquinol 10 µg/mL
Method: Using published protocols, MCF7 or U373 cells cultured in 120-mm coverslips were fixed in 4% paraformaldehyde in 0.1 M phosphate buffer (PB), pH 7.4, for 10 min. The TUNEL method (DeadEnd Fluorometric TUNEL System, Promega) was used to assay apoptosis, according to the manufacturer’s protocol. DAPI (nuclei detection) staining was also performed.

U373 cells [6] = experiment: ROS detection with DCFH-DA, U373 cells; format: cell-based, human; conditions: U373, 6 h; gibbilimbol B/eriopodol A 30 µg/mL, erioquinol 10 µg/mL
Method: (§5) MCF7 or U373 cells cultured in 120-mm coverslips were exposed to 30 µM DCFH-DA (0.1 M PB, pH 7.4) and fixed in 4% paraformaldehyde for 20 min. For fluorescence detection, coverslips were mounted on glass slides and observed with a laser-scanning confocal microscope (TCS SP8 System and Application suite X, Leica Microsystems). DAPI and fluorescein phalloidin (nuclei and cytoskeleton detection, respectively) staining was also used.

PC-3 cells = experiment: MTT cell viability assay, PC-3 prostate cancer cells; format: cell-based; conditions: Homo sapiens, 24 h
Method: as §1, §2, §3

MCF7 cells [7] = experiment: MTT cell viability assay, MCF7 cells; format: cell-based, human; conditions: for IC50: Homo sapiens, MTT; for loss of cell viability (MTT) with simultaneous 50 µM Z-VAD-(OMe)-FMK: MCF7, 6 h, gibbilimbol B/eriopodol A 30 µg/mL, erioquinol 10 µg/mL
Method: Human U373 glioma, MCF7 breast cancer, A549 lung cancer and PC-3 prostate cancer cells were grown in Dulbecco’s Modified Eagle Medium (DMEM), supplemented with 10% foetal bovine serum, 2 mM glutamine, 100 U/mL penicillin/streptomycin, at 37 °C in a humidified atmosphere containing 5% CO2 (logarithmic growth phase, routine passages every 3 days). The human breast epithelial cell line MCF10 was cultured in DMEM/F12 Ham’s Mixture supplemented with 5% horse serum, epithelial growth factor 20 ng/mL, insulin 10 μg/mL, hydrocortisone 0.5 mg/mL, cholera toxin 100 ng/mL, and 100 U/mL penicillin/streptomycin. HUVEC were grown in EGM-2 Endothelial Cell Growth Medium-2 BulletKit (Lonza, Basel, Switzerland), according to the manufacturer’s protocol.
as §2
Statistical significance of raw data between the groups in each experiment was evaluated using unpaired Student’s t-test (single comparisons) or one-way ANOVA followed by the Newman-Keuls post-test (multiple comparisons). The IC50 and Emax concentration were determined by non-linear regression curve analysis of the concentration-effect responses. Potency values among concentration-response curves were compared with the F-test. Data belonging from different experiments were represented and averaged in the same graph. The GraphPad Prism software package (GraphPad Software, San Diego, CA, USA) was used. The results were expressed as means ± standard error of mean (SEM) of the indicated n values.

MCF7 cells [8] = experiment: ROS detection with DCFH-DA, MCF7 cells; format: cell-based, human; conditions: MCF7, 6 h; gibbilimbol B/eriopodol A 30 µg/mL, erioquinol 10 µg/mL
Method: as §5

caspase 7 = experiment: Cleaved-caspase 7 immunofluorescence in U373 cells; format: cell-based, human; conditions: U373, 6 h; gibbilimbol B/eriopodol A 30 µg/mL, erioquinol 10 µg/mL
Method: as §4

[9] = MCF7, 24 h (Table 1), read-out: IC50 (μg/mL) MCF7 Cells
[10] = MCF7, 6 h exposure (time-response), read-out: IC50
[11] = MCF7, 12 h exposure (time-response), read-out: IC50

Structure (SMILES) | IC50 [1] [µg/mL] | TMRM fluorescence (mitochondria membrane potential) (U373 cells [2]) | IC50 (A549 cells) [µg/mL] | subcellular location of cytochrome c (MCF7 cells [3]) | cell morphology, bright field microscopy (MCF7 cells [4]) | nuclei, DAPI staining (MCF7 cells [4]) | TUNEL staining (DNA fragmentation) (MCF7 cells [5]) | ROS (DCFH-DA staining) (U373 cells [6]) | IC50 (PC-3 cells) [µg/mL] | IC50 (MCF7 cells [7]; [9]) [µg/mL] | IC50 (MCF7 cells [7]; [10]) [µg/mL] | IC50 (MCF7 cells [7]; [11]) [µg/mL] | IC50 (MCF7 cells [7]; MCF7, 24 h exposure (time-response), read-out: IC50) [µg/mL] | loss of cell viability (MTT) with simultaneous 50 µM Z-VAD-(OMe)-FMK (MCF7 cells [7]) | concentration-dependent inhibition of MTT absorbance with 50 µM necrostatin-1 and 10 µM ferrostatin-1 (MCF7 cells [7]; MCF7, 24 h, 2 h pre-treatment with inhibitors) | ROS (DCFH-DA staining) (MCF7 cells [8]) | activation of caspase 7 (caspase 7)
CCCCCC/C=C\CCC1(O)C=CC(=O)C=C1 [Erioquinol, (Z)-4-(dec-3′-enyl)-4-hydroxycyclohexa-2,5-dien-1-one] | 0.36 (≈ 1.45 µM) | comparable decrease in TMRM fluorescence vs. control | 2.65 (≈ 10.7 µM) | release of cytochrome c | translucent cytoplasm and no overall nuclei condensation | appearence of multinucleated cells | DNA fragmented cells were few | marked accumulation of ROS | 2.21 (≈ 8.9 µM) | 2.63 (≈ 10.6 µM) | 14.7 (≈ 59.3 µM) | 4.25 (≈ 17.1 µM) | 1.93 (≈ 7.77 µM) | did not affect | did not change | marked accumulation of ROS | –
CCCCCC/C=C/CCc1ccc(O)cc1 [Gibbilimbol B, (E)-4-(dec-3′-enyl)phenol] | 11.5 (≈ 49.4 µM) | comparable decrease in TMRM fluorescence vs. control | – | release of cytochrome c | morphological hallmarks of apoptosis | nuclei of cells undergoing apoptosis | inter-nucleosomal degradation of genomic DNA typical of late apoptotic cells | absent | – | 16.4 (≈ 70.8 µM) | 20.3 (≈ 87.4 µM) | 27.4 (≈ 118 µM) | – | significantly inhibited | – | absent | activation of caspase 7
